The record followed here is US5424308A, “Condensed pyrazole 3-oxo-propanenitrile derivatives” (Farmitalia Carlo Erba S.r.l., priority 1988, dated 1995).

SMILES strings stand for the structures.

The test system of one series is TU-5 tumor cells. Briefly: Macrophage cytotoxic activity towards TU-5 tumor cells (peritoneal macrophages of i.p. treated mice, MTT). Particulars: Effector:Target 5:1; 10 mg/kg/i.p.; 7 days before cell collection; 48 hours incubation. In kind it is cell-based. The method, then:
The experimental procedure to evaluate this activity is as follows: groups of 4 mice are treated i.p. with the tested compounds and then, seven days later, peritoneal cells are collected and plated for 2 hours at 37° C. After this period the walls are washed to eliminate the non adherent cells, tumor target cells are then added and the incubation prolonged for 48 hours. At the end of this period the target cells viability is evaluated by the MTT colorimetric method (Abstracts of VIII European Immunology Meeting, Zagreb, 1987, pag 94 n°2105) based on the optical density (OD) evaluation at 570 nm.
Percent specific cytotoxicity (%C) is calculated as % inhibition of TU-5 tumor cells (Immunology, 1984, 166, 251) growth using the following formula: [formula]
The following Table I summarizes the immunostimulating activity data of some representative compounds of the invention, obtained according to hereabove experimental procedure, towards TU-5 tumor cells.

Another series relates to Pseudomonas aeruginosa. Briefly: Pseudomonas aeruginosa infection in Cyclophosphamide immunosuppressed mice. In kind it is in vivo. Particulars: for % survival: 10 mg/kg/i.p., 8 LD50 intravenously, 10 days after bacterial challenge; for effectiveness against Pseudomonas aeruginosa infection: Cyclophosphamide immunosuppressed mice, in words. The method, then:
The experimental procedure to evaluate this activity is as follows: mice are immunosuppressed 4 days before the bacterial challenge by a single dose of 200 mg/kg of Cyclophosphamide given intraperitoneally. Tested compounds are administered i.p. on days +1 and +3 relative to Cyclophosphamide administration. Clinically isolated Pseudomonas aeruginosa is administered intravenously in amount of 8 LD50. Host resistance to infection is estimated by the number of mice surviving 10 days after the bacterial challenge.

For `N#CC(C(=O)Nc1ccccc1)C(=O)c1nn(-c2ccccc2)c2c1Cc1ccccc1-2` (stereo not drawn) [FCE 25276, 2-cyano-3-(1,4-dihydro-1-phenyl-indeno[1,2-c]pyrazol-3-yl) -3-oxo-N-phenyl-propanamide], the “Macrophage cytotoxic activity (% inhibition of TU-5 growth)” value in the series with TU-5 tumor cells was determined as 93%. Besides, in the series on Pseudomonas aeruginosa, the “% survival” value came out at 90% and the “effectiveness against Pseudomonas aeruginosa infection” value (“effectiveness” below) is “strongly effective”.
For the compound `N#CC(C(=O)Nc1ccc(F)cc1)C(=O)c1nn(-c2ccccc2)c2c1Cc1ccccc1-2` (stereo not drawn) [FCE 25648, 2-cyano-N-(4-fluoro-phenyl)-3-(1,4-dihydro-1-phenyl-indeno[1,2-c]pyrazol-3-yl)-3-oxo-propanamide], in the series on TU-5 tumor cells, the “Macrophage cytotoxic activity (% inhibition of TU-5 growth)” value is on record as 77%. Also, in the series on Pseudomonas aeruginosa, the “% survival” value stood at 90% and the “effectiveness” value was “strongly effective”.
`N#CC(C(=O)Nc1cccc(Cl)c1)C(=O)c1nn(-c2ccccc2)c2c1Cc1ccccc1-2` (stereo not drawn) [FCE 25651, N-(3-chloro-phenyl)-2-cyano-3-(1,4-dihydro-1-phenyl-indeno[1,2-c]pyrazol-3-yl)-3-oxo-propanamide]: the “Macrophage cytotoxic activity (% inhibition of TU-5 growth)” value in the series with TU-5 tumor cells is 79%. In addition, in the series with Pseudomonas aeruginosa, the “% survival” value is on record as 90% and the “effectiveness” value is “strongly effective”.
`N#CC(C(=O)Nc1ccccc1)C(=O)c1nn(-c2ccccc2)c2c1sc1ccccc12` (stereo not drawn) [FCE 26047, 2-cyano-3-oxo-3-(1-phenyl-1H-benzothieno[3,2-c]pyrazol-3-yl)-N-phenyl-propanamide]: the “Macrophage cytotoxic activity (% inhibition of TU-5 growth)” value with TU-5 tumor cells came out at 82%. Besides, in the series with Pseudomonas aeruginosa, the “% survival” value worked out at 70% and the “effectiveness” value was “strongly effective”.
